{"source": "paper PMC11304990", "about": "“Identification of mitochondrial ATP synthase as the cellular target of Ru-polypyridyl-β-carboline complexes by affinity-based protein profiling” (National Science Review, 2024)", "key": {"[1]": {"target": "ATPase (mitochondrial ATP synthase)", "test": "Inhibition of the enzymatic activity of ATPase in vitro", "assay_type": "biochemical", "details": "read-out: Inhibition constant (Ki)", "procedure": "(§1) Figure 1. Validation of ATP5F1 as the molecular target of Ru5. (A) Proteins pulled down by streptavidin from A549 cells treated with Ru5a followed by PAL. The cells were treated with Ru5a (50 μM) for 12 h and irradiated with UV light for 20 min. (B) The top five peptides enriched by Ru5a-mediated PAL were identified with the assistance of SILAC-based chemoproteomic studies. H1F0: H1 histone family member 0; HIST4H4: histone cluster 4 H4; HIST3H2BB: histone cluster 3 H2B family member b; ATP5F1E: ATP synthase F1 subunit epsilon; HIST1H2AJ: histone cluster 1 H2A family member J. (C) Pull-down western blotting analysis of ATPase in A549 cells treated with Ru5a. (D) Cellular Ru content in cells treated with Ru5/Ru5a (20 μM, 12 h) measured by ICP-MS. (E) Impact of Ru5/Ru5a (10 μM) on the thermal stability of ATP5F1 measured by CETSA. (F) Impact on the anticancer activities of Ru5/Ru5a against wild type and ATPase knocking down (by siRNA) A549 cells. The relative cellular viability was calculated using the cells without drug treatment in each group as the control group. (G) Inhibition of Ru5/Ru5a on the enzymatic activity of ATPase. (-)-blebbistatin was used as the positive control. (H) Molecular docking of Ru5 with ATPase (PDB: 3ZIA). The red dashes indicate the hydrogen bonds formed between Ru5 and the amino acid residues (SER38 and GLN39). The yellow dashes indicate the hydrophobic interaction between Ru5 and the amino acid residues (ASN15 and GLN19). Data are presented as means ± SD from three independent experiments. TEXT PRINTED IN THE PICTURE: (B) Ru5a: Log2 (fold change) (Ru5a/DMSO): 1.43 (Protein name: H1F0); Log2 (fold change) (Ru5a/DMSO): 1.23 (Protein name: HIST4H4); Log2 (fold change) (Ru5a/DMSO): 1.22 (Protein name: HIST3H2BB); Log2 (fold change) (Ru5a/DMSO): 1.21 (Protein name: ATP5F1E); Log2 (fold change) (Ru5a/DMSO): 1.12 (Protein name: HIST1H2AJ) DOUBTS OF THE COPYIST ABOUT THIS PICTURE: Panel B: the table rows are proteins enriched by Ru5a, not separate substances. […]"}, "[2]": {"tested_on": "cisplatin-resistant A549R", "test": "MTT antiproliferative assay, A549R", "assay_type": "cell-based, human", "details": "72 h", "description": "(§2) Ru3–Ru9 also show a certain selectivity for cancer cells over normal cells, and Ru2, Ru3, Ru5 and Ru9 show higher selectivity index (SI) values than the other complexes.\n(§3) PA-BPP was then used to confirm the molecular targets of Ru5 by modifying it with a ‘minimalist’ biorthogonal handle-containing photo-cross-linker. Through our structure–activity relationship analysis and comparison with other ruthenium complexes utilizing phen as the auxiliary ligands with similar coordination structures (using cisplatin as a control), we propose that the β-carboline ligands play an important role in antiproliferative activity. To maintain the binding characteristics of the β-carboline moiety with the targeted biomolecules, we linked the photo-cross-linker to one of the auxiliary ligands of Ru5."}, "malignant glioma (U87)": {"tested_on": "malignant glioma (U87)", "test": "MTT antiproliferative assay, U87", "assay_type": "cell-based, human", "details": "72 h", "description": "as §2, §3"}, "[3]": {"tested_on": "lung adenocarcinoma (A549)", "test": "MTT antiproliferative assay, A549", "assay_type": "cell-based, human", "details": "for IC50: 72 h; for SI (selectivity index): SI = (IC50 for HLF)/(IC50 for A549)", "description": "as §2, §3"}, "[4]": {"tested_on": "human lung fibroblast-like (HLF) cells", "test": "MTT antiproliferative assay, HLF", "assay_type": "cell-based", "details": "72 h", "description": "as §2, §3"}, "A549 xenograft": {"tested_on": "A549 xenograft", "test": "A549 xenograft nude mice model", "assay_type": "in vivo", "details": "5 mg kg−1, intratumoral injection every 7 days, 14 days, compared with the control groups", "procedure": "Lastly, the in vivo anticancer activity of Ru5 was assessed via a A549 xenograft nude mice model (Fig. 5A). Mice were treated with PBS, cisplatin (5 mg kg^−1) or Ru5 (5 mg kg^−1) for 14 days, during which body weights and tumor volumes were monitored.\nFigure 5. […] (A) Schematic illustration of in vivo therapeutic protocol. (B) Graphs of tumor volumes of nude mice after treatment with Ru5 (5 mg kg^−1), cisplatin (5 mg kg^−1) and PBS. The intratumoral injections were performed every 7 days. Data are presented as means ± SD, n = 5. (C) Immunohistochemical analysis of hematoxylin-eosin (H&E) staining in tumor sections from mice with different treatments. Scale bar: 50 μm. (D) Tumors separated from nude mice. (E) The average body weight of the mice in each group during the treatment process. Data are presented as means ± SD, n = 5. (F) H&E staining of the main organs from mice with different treatments. Scale bar: 100 μm."}, "[5]": {"tested_on": "triple negative breast cancer (MDA-MB-231)", "test": "MTT antiproliferative assay, MDA-MB-231", "assay_type": "cell-based, human", "details": "72 h", "description": "as §2, §3"}, "prostate cancer (PC3)": {"tested_on": "prostate cancer (PC3)", "test": "MTT antiproliferative assay, PC3", "assay_type": "cell-based, human", "details": "72 h", "description": "as §2, §3"}, "[6]": {"tested_on": "cervical carcinoma (HeLa)", "test": "MTT antiproliferative assay, HeLa", "assay_type": "cell-based, human", "details": "72 h", "description": "as §2, §3"}, "[7]": {"test": "Aqueous solubility by concentration-absorbance linearity", "assay_type": "physicochemical", "details": "PBS with 1% DMSO", "from_the_text": "Subsequently, the lipophilicity and aqueous solubility of Ru1–Ru9 were investigated."}, "mitochondria": {"tested_on": "mitochondria", "test": "Subcellular Ru content by ICP-MS", "assay_type": "cell-based", "details": "20 μM, 12 h", "procedure": "as §1, with “GLN39).” for “GLN39). The yellow dashes indicate the hydrophobic interaction between Ru5 and the amino acid residues (ASN15 and GLN19). Data are presented as means ± SD from three independent experiments. TEXT PRINTED IN THE PICTURE: (B) Ru5a: Log2 (fold change) (Ru5a/DMSO): 1.43 (Protein name: H1F0); Log2 (fold change) (Ru5a/DMSO): 1.23 (Protein name: HIST4H4); Log2 (fold change) (Ru5a/DMSO): 1.22 (Protein name: HIST3H2BB); Log2 (fold change) (Ru5a/DMSO): 1.21 (Protein name: ATP5F1E); Log2 (fold change) (Ru5a/DMSO): 1.12 (Protein name: HIST1H2AJ) DOUBTS OF THE COPYIST ABOUT THIS PICTURE: Panel B: the table rows are proteins enriched by Ru5a, not separate substances.”"}, "A549 cells": {"tested_on": "A549 cells", "test": "Anticancer activity in wild type vs ATPase siRNA knockdown cells", "assay_type": "cell-based, human", "details": "compared to wild-type cells", "procedure": "as §1, with “GLN39).” for “GLN39). The yellow dashes indicate the hydrophobic interaction between Ru5 and the amino acid residues (ASN15 and GLN19). Data are presented as means ± SD from three independent experiments. TEXT PRINTED IN THE PICTURE: (B) Ru5a: Log2 (fold change) (Ru5a/DMSO): 1.43 (Protein name: H1F0); Log2 (fold change) (Ru5a/DMSO): 1.23 (Protein name: HIST4H4); Log2 (fold change) (Ru5a/DMSO): 1.22 (Protein name: HIST3H2BB); Log2 (fold change) (Ru5a/DMSO): 1.21 (Protein name: ATP5F1E); Log2 (fold change) (Ru5a/DMSO): 1.12 (Protein name: HIST1H2AJ) DOUBTS OF THE COPYIST ABOUT THIS PICTURE: Panel B: the table rows are proteins enriched by Ru5a, not separate substances.”"}, "ATP5F1": {"tested_on": "ATP5F1", "test": "Cellular thermal shift assay (CETSA)", "assay_type": "cell-based", "details": "10 μM", "procedure": "as §1, with “GLN39).” for “GLN39). The yellow dashes indicate the hydrophobic interaction between Ru5 and the amino acid residues (ASN15 and GLN19). Data are presented as means ± SD from three independent experiments. TEXT PRINTED IN THE PICTURE: (B) Ru5a: Log2 (fold change) (Ru5a/DMSO): 1.43 (Protein name: H1F0); Log2 (fold change) (Ru5a/DMSO): 1.23 (Protein name: HIST4H4); Log2 (fold change) (Ru5a/DMSO): 1.22 (Protein name: HIST3H2BB); Log2 (fold change) (Ru5a/DMSO): 1.21 (Protein name: ATP5F1E); Log2 (fold change) (Ru5a/DMSO): 1.12 (Protein name: HIST1H2AJ) DOUBTS OF THE COPYIST ABOUT THIS PICTURE: Panel B: the table rows are proteins enriched by Ru5a, not separate substances.”"}}, "data": [{"smiles": "Cc1ccc2c(c1)C(=O)C1(O)CCN(c3ccccc3)C1=N2", "note": "(single isomer, unassigned; (-)) [(-)-blebbistatin, reference compound]", "values": [{"measurement": "Ki", "setting": "[1]", "value": "3.3 ± 0.5", "unit": "µM"}]}, {"smiles": "N.N.[Cl][Pt][Cl]", "note": "[Cisplatin, reference compound]", "values": [{"measurement": "IC50", "setting": "[2]", "value": "28.1 ± 4.2", "unit": "µM"}, {"measurement": "IC50", "setting": "malignant glioma (U87)", "value": "14.8 ± 1.2", "unit": "µM"}, {"measurement": "IC50", "setting": "[3]", "value": "5.9 ± 1", "unit": "µM"}, {"measurement": "SI (selectivity index)", "setting": "[3]", "value": 2.6}, {"measurement": "IC50", "setting": "[4]", "value": "15.4 ± 1.1", "unit": "µM"}, {"measurement": "Tumor growth inhibitory rate", "setting": "A549 xenograft", "value": "~74.4", "unit": "%"}, {"measurement": "IC50", "setting": "[5]", "value": "9 ± 0.2", "unit": "µM"}, {"measurement": "IC50", "setting": "prostate cancer (PC3)", "value": "13.1 ± 2.7", "unit": "µM"}, {"measurement": "IC50", "setting": "[6]", "value": "10.3 ± 1.3", "unit": "µM"}]}, {"smiles": "F[P-](F)(F)(F)(F)F.F[P-](F)(F)(F)(F)F.[Ru+2].c1ccc2nc(-c3nccc4c3[nH]c3ccccc34)ccc2c1.c1cnc2c(c1)ccc1cccnc12.c1cnc2c(c1)ccc1cccnc12", "note": "[Ru2]", "values": [{"measurement": "Linear relationship between absorbance and concentration up to", "setting": "[7]", "value": "at least 100 μM"}, {"measurement": "SI (selectivity index)", "setting": "[3]", "value": "higher"}]}, {"smiles": "F[P-](F)(F)(F)(F)F.F[P-](F)(F)(F)(F)F.[Ru+2].c1ccc(-c2ccnc3c2ccc2c(-c4ccccc4)ccnc23)cc1.c1ccc(-c2ccnc3c2ccc2c(-c4ccccc4)ccnc23)cc1.c1ccc2nc(-c3nccc4c3[nH]c3ccccc34)ccc2c1", "note": "[Ru3]", "values": [{"measurement": "Highest solubility", "setting": "[7]", "value": "lower than 40 μM"}, {"measurement": "SI (selectivity index)", "setting": "[3]", "value": "higher"}]}, {"smiles": "C#CCCC1(CCNC(=O)c2cc3cccnc3c3ncccc23)N=N1.F[P-](F)(F)(F)(F)F.F[P-](F)(F)(F)(F)F.[Ru+2].c1ccc2c(c1)[nH]c1c(-c3ncc[nH]3)nccc12.c1cnc2c(c1)ccc1cccnc12", "note": "[Ru5a]", "values": [{"measurement": "IC50", "setting": "[2]", "value": "4.2 ± 0.6", "unit": "µM"}, {"measurement": "Subcellular location (cellular Ru content)", "setting": "mitochondria", "value": "mainly located in mitochondria"}, {"measurement": "Effect of siRNA-mediated knockdown of ATPase on anticancer effects", "setting": "A549 cells", "value": "alleviates"}, {"measurement": "IC50", "setting": "malignant glioma (U87)", "value": "13.4 ± 0.4", "unit": "µM"}, {"measurement": "IC50", "setting": "[3]", "value": "2.5 ± 0.4", "unit": "µM"}, {"measurement": "SI (selectivity index)", "setting": "[3]", "value": 9.3}, {"measurement": "IC50", "setting": "[4]", "value": "23.2 ± 0.3", "unit": "µM"}, {"measurement": "Ki", "setting": "[1]", "value": "8.1 ± 1.5", "unit": "µM"}, {"measurement": "IC50", "setting": "[5]", "value": "8.4 ± 0.6", "unit": "µM"}, {"measurement": "IC50", "setting": "prostate cancer (PC3)", "value": "3.4 ± 0.6", "unit": "µM"}, {"measurement": "IC50", "setting": "[6]", "value": "3.8 ± 0.1", "unit": "µM"}, {"measurement": "Thermal stability of ATP5F1", "setting": "ATP5F1", "value": "increased"}]}, {"smiles": "F[P-](F)(F)(F)(F)F.F[P-](F)(F)(F)(F)F.[Ru+2].c1ccc(-c2ccnc3c2ccc2c(-c4ccccc4)ccnc23)cc1.c1ccc(-c2ccnc3c2ccc2c(-c4ccccc4)ccnc23)cc1.c1ccc2c(c1)[nH]c1c(-c3ncc[nH]3)nccc12", "note": "[Ru6]", "values": [{"measurement": "Highest solubility", "setting": "[7]", "value": "lower than 40 μM"}]}, {"smiles": "F[P-](F)(F)(F)(F)F.F[P-](F)(F)(F)(F)F.[Ru+2].c1ccc2[nH]c(-c3nccc4c3[nH]c3ccccc34)nc2c1.c1cnc2c(c1)ccc1cccnc12.c1cnc2c(c1)ccc1cccnc12", "note": "[Ru8]", "values": [{"measurement": "Linear relationship between absorbance and concentration up to", "setting": "[7]", "value": "at least 100 μM"}]}, {"smiles": "F[P-](F)(F)(F)(F)F.F[P-](F)(F)(F)(F)F.[Ru+2].c1ccc(-c2ccnc3c2ccc2c(-c4ccccc4)ccnc23)cc1.c1ccc(-c2ccnc3c2ccc2c(-c4ccccc4)ccnc23)cc1.c1ccc2[nH]c(-c3nccc4c3[nH]c3ccccc34)nc2c1", "note": "[Ru9]", "values": [{"measurement": "Highest solubility", "setting": "[7]", "value": "lower than 40 μM"}, {"measurement": "SI (selectivity index)", "setting": "[3]", "value": "higher"}]}]}
